Experimental data: patent publication US20160074351A1, “DISPENSING SYSTEM” (HZNP Limited, priority 2012, published 2016)

Columns and labels:
[1] = major diclofenac metabolite; cited from earlier work
rats [2] = test: Fertility studies of dermally applied DMSO; format: in vivo
From the text: Studies conducted in rats found no effect of dermally applied DMSO on fertility, reproductive performance, or offspring performance.

rats [3] = test: Ocular effects of dermal DMSO, indirect ophthalmoscopy, rats; format: in vivo; details: multiple-daily dermal application for 26 weeks
minipigs = test: Ocular effects of dermal DMSO, indirect ophthalmoscopy, minipigs; format: in vivo; details: multiple-daily dermal application for 52 weeks
[4] = published studies; cited from earlier work
rabbits, dogs and pigs = details: dermal or oral administration; published studies; cited from earlier work
rhesus monkeys = details: daily oral or dermal treatment for 9 to 18 months; cited from earlier work
mice [5] = details: doses up to 20 mg/kg/day (0.6-fold the MRHD), maternal and fetal toxicity induced; cited from earlier work
rats [6] = details: doses up to 10 mg/kg/day (approximately 0.6-fold the MRHD); cited from earlier work
rabbits = details: doses up to 10 mg/kg/day (approximately […] the MRHD); cited from earlier work
mice [7] = details: dietary constituent for 2 years, doses up to 2 mg/kg/day; cited from earlier work
rats [8] = details: dietary constituent for 2 years, doses up to 2 mg/kg/day; cited from earlier work
albino mice = details: daily topical applications for two years at concentrations up to 0.035%; cited from earlier work
hairless mice = details: topical application at doses up to 0.035%; cited from earlier work
male and female rats = details: doses up to 4 mg/kg/day (1.4-fold of the MRHD); cited from earlier work
[9] = system: patients with osteoarthritis; details: combination vs. oral diclofenac alone
patients = details: cited from earlier work
[10] = case report in the literature; cited from earlier work
[11] = bacterial reverse mutation, mouse lymphoma point mutation, CHO chromosomal aberration in vitro, in vivo rat bone marrow chromosomal aberration; cited from earlier work
[12] = oral diclofenac sodium; cited from earlier work
rats [13] = details: cited from earlier work
[14] = in vivo; cited from earlier work

For `O=C(O)Cc1ccccc1Nc1c(Cl)cc(O)cc1Cl` [4′-hydroxy-diclofenac], the pharmacologic activity [1] is listed as “very weak pharmacologic activity”.

For `C[S+](C)[O-]` [DMSO, dimethyl sulfoxide], the “fertility, reproductive performance, or offspring performance” value (rats [2]) was “no effect”, the “ocular adverse effects by indirect ophthalmoscopy” value (rats [3]) was “No adverse effects were observed” and the “ocular adverse effects by indirect ophthalmoscopy” value (minipigs) was “No adverse effects were observed”. The potential teratogenicity [4] was “equivocal”, the “ocular findings by slit-lamp biomicroscopy” value (rabbits, dogs and pigs) was “refractive changes of lens curvature and cortical fibers indicative of myopic changes and/or incidences of lens opacity or discoloration” and the ocular abnormalities (rhesus monkeys) was “no ocular abnormalities were observed”.

In the case of `O=C([O-])Cc1ccccc1Nc1c(Cl)cccc1Cl.[Na+]` [diclofenac sodium], the teratogenicity (mice [5]) is listed as “did not produce teratogenicity”, the teratogenicity (rats [6]) is listed as “did not produce teratogenicity” and the teratogenicity (rabbits) is listed as “did not produce teratogenicity”. For the same molecule, the tumor incidence (mice [7]) was “no significant increases in tumor incidence”, the tumor incidence (rats [8]) was “no significant increases in tumor incidence” and the neoplasm incidence (albino mice) was “did not increase neoplasm incidence”. The “time of onset of tumors” value (hairless mice) was “earlier median time of onset of tumors” and the fertility (male and female rats) was “did not affect fertility”.

With `O=C(O)Cc1ccccc1Nc1c(Cl)cccc1Cl` [diclofenac] the abnormal creatinine [9] was 7%, the abnormal hemoglobin [9] was 9% and the abnormal urea [9] was 12%. The “rate of rectal hemorrhage” value [9] was “less than 1%”, the “patients with marked transaminase elevations whose abnormal tests occurred during the first 2 months of therapy” value (patients; all trials) was 42 of the 51 patients and the “borderline (less than 3 times ULN) or greater elevations of transaminases, patients” value (patients; clinical trials of indications other than acute pain) was “about 15%”. For the same molecule, the “meaningful elevations of ALT and/or AST, patients” value (patients; open-label controlled trial, 3,700 patients treated for 2 to 6 months) was “about 4%”, the “marked elevations (>8 times the ULN) of ALT and/or AST, patients” value (patients; open-label controlled trial, 3,700 patients) was “about 1%” and the “incidence of borderline, moderate and marked elevations of ALT or AST compared to other NSAIDs” value (patients; open-label study) was “higher incidence”. The “detection in breast milk” value [10] was “can be detected at low levels”, the mutagenicity / clastogenicity [11] was “not mutagenic or clastogenic” and the “binding of diclofenac to protein when administered with aspirin” value [12] was “reduced”. For the same molecule, the “clearance of free diclofenac when administered with aspirin” value [12] was “not altered”, the “effects of maternal exposure on labor and delivery” value (rats [13]) was “increased the incidence of dystocia, delayed parturition, and decreased offspring survival” and the “free unchanged diclofenac excreted in the urine” value [14] was “Little or no”.
